Laboratory results: patent publication US20250136577A1, “HETEROCYCLIC DERIVATIVES AS MALT1 INHIBITORS” (C4X Discovery Limited, priority 2022, published 2025)

Tests used:
[1] = biological target: MALT1-GS-Ub (6-His-hMALT-1 residues 339-715 fused to ubiquitin) (Homo sapiens (Human), UniProt Q9UDY8); test: MALT1 Protease Assay 1 (Assay 1), cleavage of fluorogenic tetrapeptide substrate; assay type: biochemical; details: MALT1-GS-Ub 300-600 nM, Ac-LVSR-AMC 100 μM, 30 min preincubation, 60 min read
Method: MALT1 Protease Assay 1 (Assay 1)
(§1) MALT1 protease activity was assessed in vitro by measuring the cleavage of a fluorogenic tetrapeptide substrate.
A protein (MALT1-GS-Ub) comprising 6-His-hMALT-1 (residues 339-715), fused to ubiquitin with an 8× GGS linker, was expressed in E. coli, and purified using chitin resin to remove contaminants followed by affinity chromatography purification and size-exclusion chromatography, according to standard protocols.
Briefly, MALT1-GS-Ub (300-600 nM) was incubated with substrate (Ac-LVSR-AMC, 100 μM) in reaction buffer comprising 50 mM HEPES (pH7.0), 25 mM KCl, 0.1% (v/v) CHAPS and 1 mM TCEP.
(§2) Test compounds dissolved in DMSO were dispensed into assay plates (384-well, black, shallow ProxiPlates). 7 μl enzyme solution was added and incubated at room temperature for 30 minutes to allow compound binding to occur. 2 μl substrate solution was then added and the fluorescence (excitation 360 nm, emission 460 nm) read every 15 minutes using a suitable plate reader. Final assay DMSO concentration was 1%. Linearity over 60 minutes was confirmed, and assay signal was calculated by subtracting raw counts at time 0 from those at 60 minutes. % inhibition was calculated for each well, using no enzyme for 100% inhibition controls and no compound for 0% inhibition controls. IC50 values were calculated using GraphPad Prism using a 4-parameter non-linear regression curve fit.

FL hMALT1 enzyme = FL hMALT1 enzyme (Homo sapiens (Human), UniProt Q9UDY8); test: MALT1 Protease Assay 2 (Assay 2), higher sensitivity, cleavage of fluorogenic tetrapeptide substrate; assay type: biochemical; details: FL hMALT1 1-10 nM, Ac-LVSR-AMC 100 μM, 0.7 M sodium citrate, 30 min preincubation, 60 min read
Sequence of FL hMALT1 enzyme (Q9UDY8 whole entry): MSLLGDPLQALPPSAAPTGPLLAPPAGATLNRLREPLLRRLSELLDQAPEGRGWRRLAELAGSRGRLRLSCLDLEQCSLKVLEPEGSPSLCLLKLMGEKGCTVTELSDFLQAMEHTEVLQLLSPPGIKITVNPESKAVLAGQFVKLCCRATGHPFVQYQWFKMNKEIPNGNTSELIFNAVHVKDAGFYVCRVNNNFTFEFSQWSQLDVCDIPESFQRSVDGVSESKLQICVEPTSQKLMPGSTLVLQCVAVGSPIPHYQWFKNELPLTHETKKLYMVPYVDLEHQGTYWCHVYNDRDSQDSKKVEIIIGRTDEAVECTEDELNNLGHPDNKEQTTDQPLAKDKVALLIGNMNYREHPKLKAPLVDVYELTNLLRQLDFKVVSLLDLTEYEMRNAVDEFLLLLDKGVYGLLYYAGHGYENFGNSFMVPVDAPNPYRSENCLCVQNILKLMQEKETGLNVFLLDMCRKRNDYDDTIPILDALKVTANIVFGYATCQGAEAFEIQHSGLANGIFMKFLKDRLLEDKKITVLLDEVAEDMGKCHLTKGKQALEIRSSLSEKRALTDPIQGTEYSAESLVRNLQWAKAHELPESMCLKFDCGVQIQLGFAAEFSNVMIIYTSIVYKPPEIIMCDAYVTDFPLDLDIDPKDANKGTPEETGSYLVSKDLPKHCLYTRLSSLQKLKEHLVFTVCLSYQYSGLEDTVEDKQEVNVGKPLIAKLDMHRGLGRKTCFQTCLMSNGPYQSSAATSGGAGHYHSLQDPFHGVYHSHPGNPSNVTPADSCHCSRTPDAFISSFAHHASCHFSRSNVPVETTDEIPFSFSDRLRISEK
Method: MALT1 Protease Assay 2 (Assay 2)
as §1
For a higher sensitivity assay, commercially available FL hMALT1 enzyme (Abcam, 1-10 nM) was incubated with substrate (Ac-LVSR-AMC, 100 μM) in reaction buffer comprising 50 mM HEPES (pH7.0), 25 mM KCl, 0.1% (v/v) CHAPS, 1 mM TCEP and 0.7 M sodium citrate.
as §2

Sequence of MALT1-GS-Ub (6-His-hMALT-1 residues 339-715 fused to ubiquitin) (Q9UDY8 other isoform, or with tags, fused parts or gaps): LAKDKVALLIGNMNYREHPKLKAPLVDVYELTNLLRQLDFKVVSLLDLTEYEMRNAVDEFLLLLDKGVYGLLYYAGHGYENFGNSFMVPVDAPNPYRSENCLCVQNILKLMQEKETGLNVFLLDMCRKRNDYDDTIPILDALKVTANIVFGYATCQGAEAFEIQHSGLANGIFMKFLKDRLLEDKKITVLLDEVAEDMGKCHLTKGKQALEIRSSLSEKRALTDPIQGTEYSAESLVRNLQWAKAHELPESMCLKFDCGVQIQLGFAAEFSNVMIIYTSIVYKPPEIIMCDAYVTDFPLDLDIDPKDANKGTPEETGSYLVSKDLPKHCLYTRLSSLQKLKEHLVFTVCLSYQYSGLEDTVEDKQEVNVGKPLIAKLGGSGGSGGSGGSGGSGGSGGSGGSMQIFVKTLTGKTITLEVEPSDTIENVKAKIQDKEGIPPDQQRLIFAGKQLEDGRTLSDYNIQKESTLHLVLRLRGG

For O=C(Nc1cnc(-n2nccn2)c(C(F)(F)F)c1)N1CCCc2c(-c3cccnc3)cccc21 [Example 8, N-(6-(2H-1,2,3-Triazol-2-yl)-5-(trifluoromethyl)pyridin-3-yl)-5-(pyridin-3-yl)-3,4-dihydroquinoline-1 (2H)-carboxamide], the IC50 [1] was 9.8 µM and the IC50 (FL hMALT1 enzyme) was over 10000 nM.
COc1cccc2c1CCCN2C(=O)Nc1cnc(-n2nccn2)c(Cl)c1 [Example 3, N-(5-Chloro-6-(2H-1,2,3-triazol-2-yl)pyridin-3-yl)-5-methoxy-3,4-dihydroquinoline-1 (2H)-carboxamide] was tested, and the IC50 [1] was 3 µM and the IC50 (FL hMALT1 enzyme) was 610 nM.
Work on O=C(Nc1cnc(-n2nccn2)c(Cl)c1)N1CCCc2c(Br)cccc21 [Example 1, 5-Bromo-N-(5-chloro-6-(2H-1,2,3-triazol-2-yl)pyridin-3-yl)-3,4-dihydroquinoline-1 (2H)-carboxamide] yielded an IC50 [1] of 4.5 µM.
Cc1ncc2c(c1C#N)OC(C(F)(F)F)CN2C(=O)Nc1cnc(-n2nccn2)c(C#N)c1 (single isomer, unassigned) [Example 63, 8-Cyano-N-(5-cyano-6-(2H-1,2,3-triazol-2-yl)pyridin-3-yl)-7-methyl-2-(trifluoromethyl)-2,3-dihydro-4H-pyrido[4,3-b][1,4]oxazine-4-carboxamide] showed an IC50 (FL hMALT1 enzyme) of 104 nM.
In the case of Cc1ncc2c(c1C#N)OC(C(F)(F)F)CN2C(=O)Nc1cnc(C(=O)N(C)C2CC2)c(C(F)F)c1 (single isomer, unassigned) [Example 66, 8-Cyano-N-(6-(cyclopropyl(methyl)carbamoyl)-5-(difluoromethyl)pyridin-3-yl)-7-methyl-2-(trifluoromethyl)-2,3-dihydro-4H-pyrido[4,3-b][1,4]oxazine-4-carboxamide], the IC50 (FL hMALT1 enzyme) is reported as 9100 nM.
O=C(Nc1cnc(-n2nccn2)c(C(F)(F)F)c1)N1CCOc2c(Br)cccc21 [Example 4, N-(6-(2H-1,2,3-Triazol-2-yl)-5-(trifluoromethyl)pyridin-3-yl)-8-bromo-2,3-dihydro-4H-benzo[b][1,4]oxazine-4-carboxamide] gave an IC50 [1] of 2.8 µM and an IC50 (FL hMALT1 enzyme) of 400 nM.
O=C(Nc1cnc(-n2nccn2)c(Cl)c1)N1CCN(C2CCOCC2)c2c(Br)cncc21 [Example 33, 8-Bromo-N-(5-chloro-6-(2H-1,2,3-triazol-2-yl)pyridin-3-yl)-1-(tetrahydro-2H-pyran-4-yl)-2,3-dihydropyrido[3,4-b]pyrazine-4 (1H)-carboxamide] was tested, and the IC50 [1] was 7.6 µM and the IC50 (FL hMALT1 enzyme) was 1500 nM.
With O=C(Nc1cnc(-n2nccn2)c(Cl)c1)N1CC(C2CC2)Oc2c(Br)cncc21 (single isomer, unassigned) [Example 51, 8-Bromo-N-(5-chloro-6-(2H-1,2,3-triazol-2-yl)pyridin-3-yl)-2-cyclopropyl-2,3-dihydro-4H-pyrido[4,3-b][1,4]oxazine-4-carboxamide] the IC50 (FL hMALT1 enzyme) was 250 nM.
Work on Cc1ncc2c(c1C#N)OC(C(F)(F)F)CN2C(=O)Nc1cnc(-n2nccn2)c(C(F)(F)F)c1 (single isomer, unassigned) [Example 65, N-(6-(2H-1,2,3-triazol-2-yl)-5-(trifluoromethyl)pyridin-3-yl)-8-cyano-7-methyl-2-(trifluoromethyl)-2,3-dihydro-4H-pyrido[4,3-b][1,4]oxazine-4-carboxamide] yielded an IC50 (FL hMALT1 enzyme) of 17 nM.
In the case of COc1cncc2c1OC(C(F)(F)F)CN2C(=O)Nc1cnc(-n2nccn2)c(Cl)c1 (single isomer, unassigned) [Example 57, N-(5-Chloro-6-(2H-1,2,3-triazol-2-yl)pyridin-3-yl)-8-methoxy-2-(trifluoromethyl)-2,3-dihydro-4H-pyrido[4,3-b][1,4]oxazine-4-carboxamide], the IC50 (FL hMALT1 enzyme) is reported as 170 nM.
Molecule Cc1ncc2c(c1C#N)OC(C(F)(F)F)CN2C(=O)Nc1cnc(OC(F)F)c(Cl)c1 (single isomer, unassigned) [Example 60, N-(5-Chloro-6-(difluoromethoxy)pyridin-3-yl)-8-cyano-7-methyl-2-(trifluoromethyl)-2,3-dihydro-4H-pyrido[4,3-b][1,4]oxazine-4-carboxamide] has an IC50 (FL hMALT1 enzyme) of 3820 nM.
Molecule Cc1ncc2c(c1C#N)OC(C(F)(F)F)CN2C(=O)Nc1cnc(C(=O)N(C)C2CC2)c(C(F)F)c1 (single isomer, unassigned) [Example 67, 8-Cyano-N-(6-(cyclopropyl(methyl)carbamoyl)-5-(difluoromethyl)pyridin-3-yl)-7-methyl-2-(trifluoromethyl)-2,3-dihydro-4H-pyrido[4,3-b][1,4]oxazine-4-carboxamide] has an IC50 (FL hMALT1 enzyme) of 146 nM.
In the case of Cc1ncc2c(c1C#N)OC(C(F)(F)F)CN2C(=O)Nc1cnc(-n2nccn2)c(C(F)(F)F)c1 (single isomer, unassigned) [Example 64, N-(6-(2H-1,2,3-triazol-2-yl)-5-(trifluoromethyl)pyridin-3-yl)-8-cyano-7-methyl-2-(trifluoromethyl)-2,3-dihydro-4H-pyrido[4,3-b][1,4]oxazine-4-carboxamide], the IC50 (FL hMALT1 enzyme) is reported as 2120 nM.
With Cc1ncc2c(c1C#N)OC(C(F)(F)F)CN2C(=O)Nc1cnc(-n2nccn2)c(Cl)c1 (single isomer, unassigned) [Example 52, N-(5-Chloro-6-(2H-1,2,3-triazol-2-yl)pyridin-3-yl)-8-cyano-7-methyl-2-(trifluoromethyl)-2,3-dihydro-4H-pyrido[4,3-b][1,4]oxazine-4-carboxamide] the IC50 (FL hMALT1 enzyme) was 7600 nM.
Molecule O=C(Nc1cnc(-n2nccn2)c(C(F)(F)F)c1)N1CCCc2c(Br)cccc21 [Example 2, N-(6-(2H-1,2,3-Triazol-2-yl)-5-(trifluoromethyl)pyridin-3-yl)-5-bromo-3,4-dihydroquinoline-1 (2H)-carboxamide] has an IC50 [1] of 3.2 µM.
Cc1ncc2c(c1C#N)OC(C(F)(F)F)CN2C(=O)Nc1ccnc(C(F)(F)F)c1 (stereo not shown) [Example 59, 8-Cyano-7-methyl-2-(trifluoromethyl)-N-(2-(trifluoromethyl)pyridin-4-yl)-2,3-dihydro-4H-pyrido[4,3-b][1,4]oxazine-4-carboxamide] gave an IC50 (FL hMALT1 enzyme) of 820 nM.
For O=C(Nc1cnc(-n2nccn2)c(Cl)c1)N1CC(C2CC2)Oc2c(Br)cncc21 (single isomer, unassigned) [Example 50, 8-Bromo-N-(5-chloro-6-(2H-1,2,3-triazol-2-yl)pyridin-3-yl)-2-cyclopropyl-2,3-dihydro-4H-pyrido[4,3-b][1,4]oxazine-4-carboxamide], the IC50 (FL hMALT1 enzyme) was 240 nM.
Molecule COc1cncc2c1OC(C(F)(F)F)CN2C(=O)Nc1cnc(-n2nccn2)c(Cl)c1 (single isomer, unassigned) [Example 56, N-(5-Chloro-6-(2H-1,2,3-triazol-2-yl)pyridin-3-yl)-8-methoxy-2-(trifluoromethyl)-2,3-dihydro-4H-pyrido[4,3-b][1,4]oxazine-4-carboxamide] has an IC50 (FL hMALT1 enzyme) of 5100 nM.
In the case of N#Cc1cncc2c1OC(C(F)(F)F)CN2C(=O)Nc1cnc(-n2nccn2)c(Cl)c1 (single isomer, unassigned) [Example 54, N-(5-Chloro-6-(2H-1,2,3-triazol-2-yl)pyridin-3-yl)-8-cyano-2-(trifluoromethyl)-2,3-dihydro-4H-pyrido[4,3-b][1,4]oxazine-4-carboxamide], the IC50 (FL hMALT1 enzyme) is reported as 8200 nM.
Molecule CC1CN(C(=O)Nc2cnc(-n3nccn3)c(Cl)c2)c2cncc(Br)c2O1 (single isomer, unassigned) [Example 45, 8-Bromo-N-(5-chloro-6-(2H-1,2,3-triazol-2-yl)pyridin-3-yl)-2-methyl-2,3-dihydro-4H-pyrido[4,3-b][1,4]oxazine-4-carboxamide] has an IC50 (FL hMALT1 enzyme) of 200 nM.
N#CC1Cc2c(Br)cncc2N(C(=O)Nc2cnc(-n3nccn3)c(Cl)c2)C1 (stereo not shown) [Example 58, 5-Bromo-N-(5-chloro-6-(2H-1,2,3-triazol-2-yl)pyridin-3-yl)-3-cyano-3,4-dihydro-1,7-naphthyridine-1 (2H)-carboxamide] was tested, and the IC50 (FL hMALT1 enzyme) was 1290 nM.
Molecule Cc1ncc2c(c1Br)OC(C(F)(F)F)CN2C(=O)Nc1cnc(-n2nccn2)c(Cl)c1 (single isomer, unassigned) [Example 42, 8-Bromo-N-(5-chloro-6-(2H-1,2,3-triazol-2-yl)pyridin-3-yl)-7-methyl-2-(trifluoromethyl)-2,3-dihydro-4H-pyrido[4,3-b][1,4]oxazine-4-carboxamide] has an IC50 (FL hMALT1 enzyme) of 3400 nM.
In the case of Cc1ncc2c(c1C#N)OC(C(F)(F)F)CN2C(=O)Nc1cnc(-n2nccn2)c(C#N)c1 (single isomer, unassigned) [Example 62, 8-Cyano-N-(5-cyano-6-(2H-1,2,3-triazol-2-yl)pyridin-3-yl)-7-methyl-2-(trifluoromethyl)-2,3-dihydro-4H-pyrido[4,3-b][1,4]oxazine-4-carboxamide], the IC50 (FL hMALT1 enzyme) is reported as 6500 nM.
Work on CC1CN(C(=O)Nc2cnc(-n3nccn3)c(Cl)c2)c2cncc(Br)c2O1 (single isomer, unassigned) [Example 44, 8-Bromo-N-(5-chloro-6-(2H-1,2,3-triazol-2-yl)pyridin-3-yl)-2-methyl-2,3-dihydro-4H-pyrido[4,3-b][1,4]oxazine-4-carboxamide] yielded an IC50 (FL hMALT1 enzyme) of 330 nM.
